Assays:
Assay in all cases: cells
[1] = system: TGBC11TKB; assay type: functional, cell-based; details: Homo sapiens;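 also: growth inhibition of human TGBC11TKB cells, measured by a cell viability assay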
Description: SANGER: Inhibition of human TGBC11TKB cell growth in a cell viability assay.

[2] = system: U-87 MG; assay type: functional, cell-based, U-87MG ATCC; details: Homo sapiens;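 also: growth inhibition of the cells measured with a viability assay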
Description: SANGER: Inhibition of human U-87-MG cell growth in a cell viability assay.

[3] = system: RD; assay type: functional, cell-based, Homo sapiens; details: Homo sapiens, RD
Description: SANGER: Inhibition of human RD cell growth in a cell viability assay.

[4] = system: T-24; assay type: functional, cell-based, Homo sapiens; details: Homo sapiens, T-24;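 also: growth inhibition of T-24 cells, read out with a cell viability assay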
Description: SANGER: Inhibition of human T-24 cell growth in a cell viability assay.

[5] = system: 23132-87; assay type: functional, cell-based, Homo sapiens; details: Homo sapiens
Description: SANGER: Inhibition of human 23132-87 cell growth in a cell viability assay.

[6] = system: H-EMC-SS; assay type: functional, cell-based; details: Homo sapiens
Description: SANGER: Inhibition of human H-EMC-SS cell growth in a cell viability assay.

[7] = system: NCI-H2029; assay type: functional, cell-based; details: Homo sapiens;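 also: Read-out is a viability assay on the cultured cells, and IC50 is the concentration that suppresses cell growth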
Description: SANGER: Inhibition of human NCI-H2029 cell growth in a cell viability assay.

[8] = system: HSC-4; assay type: functional, cell-based, Homo sapiens; details: Homo sapiens, HSC-4;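 also: growth inhibition of human HSC-4 cells, read out with a cell viability assay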
Description: SANGER: Inhibition of human HSC-4 cell growth in a cell viability assay.

[9] = system: IGR-1; assay type: functional, cell-based, Homo sapiens; details: Homo sapiens, IGR-1;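 also: growth inhibition of human IGR-1 cells, read out with a cell viability assay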
Description: SANGER: Inhibition of human IGR-1 cell growth in a cell viability assay.

[10] = system: LXF-289 cell line; assay type: functional, cell-based, Homo sapiens; details: Homo sapiens, LXF-289
Description: SANGER: Inhibition of human LXF-289 cell growth in a cell viability assay.

[11] = system: ASPC1; assay type: functional, cell-based, Homo sapiens; details: Homo sapiens, ASPC1;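 also: growth inhibition of AsPC-1 cells, read out with a cell viability assay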
Description: SANGER: Inhibition of human AsPC-1 cell growth in a cell viability assay.

[12] = system: HCC 2998; assay type: functional, cell-based, Homo sapiens; details: Homo sapiens, HCC 2998;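 also: growth inhibition of human HCC2998 cells, measured with a cell viability read-out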
Description: SANGER: Inhibition of human HCC2998 cell growth in a cell viability assay.

[13] = system: A3-KAW; assay type: functional, cell-based; details: Homo sapiens;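 also: growth inhibition of human A3-KAW cells, read out with a cell viability assay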
Description: SANGER: Inhibition of human A3-KAW cell growth in a cell viability assay.

[14] = system: NCI-H2405; assay type: functional, cell-based, Homo sapiens; details: Homo sapiens, NCI-H2405;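 also: growth inhibition of the human cell line, read out with a cell viability assay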
Description: SANGER: Inhibition of human NCI-H2405 cell growth in a cell viability assay.

[15] = system: C2BBe1; assay type: functional, cell-based, Homo sapiens; details: Homo sapiens, C2BBe1;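 also: growth inhibition of C2BBe1 cells, read out through a viability assay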
Description: SANGER: Inhibition of human C2BBe1 cell growth in a cell viability assay.

[16] = system: D-566MG; assay type: functional, cell-based; details: Homo sapiens
[17] = system: SF-539; assay type: functional, cell-based, Homo sapiens; details: Homo sapiens, SF-539;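 also: Read-out is a cell viability assay, with IC50 reflecting inhibition of cell growth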
Description: SANGER: Inhibition of human SF539 cell growth in a cell viability assay.

[18] = system: G-401; assay type: functional, cell-based, Homo sapiens; details: Homo sapiens, G-401
Description: SANGER: Inhibition of human G-401 cell growth in a cell viability assay.

[19] = system: HuO9; assay type: functional, cell-based, Homo sapiens; details: Homo sapiens, HuO9;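 also: growth inhibition of HuO9 cells, read out with a cell viability assay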
Description: SANGER: Inhibition of human HuO9 cell growth in a cell viability assay.

[20] = system: JVM-3; assay type: functional, cell-based; details: Homo sapiens;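 also: growth inhibition of human JVM-3 cells, read out with a cell viability assay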
Description: SANGER: Inhibition of human JVM-3 cell growth in a cell viability assay.

[21] = system: BALL-1; assay type: functional, cell-based; details: Homo sapiens;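 also: growth inhibition of BALL-1 cells, read out with a cell viability assay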
Description: SANGER: Inhibition of human BALL-1 cell growth in a cell viability assay.

[22] = system: TE-9; assay type: functional, cell-based, Homo sapiens; details: Homo sapiens, TE-9;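 also: cell growth inhibition, measured with a cell viability readout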
Description: SANGER: Inhibition of human TE-9 cell growth in a cell viability assay.

[23] = system: LB831-BLC; assay type: functional, cell-based, Homo sapiens; details: Homo sapiens, LB831-BLC;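 also: growth inhibition of LB831-BLC cells, read out with a cell viability assay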
Description: SANGER: Inhibition of human LB831-BLC cell growth in a cell viability assay.

[24] = system: HT55; assay type: functional, cell-based, Homo sapiens; details: Homo sapiens, HT55;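 also: cell viability readout measuring growth inhibition of human HT55 cells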
Description: SANGER: Inhibition of human HT55 cell growth in a cell viability assay.

[25] = system: H9; assay type: functional, cell-based; details: Homo sapiens
Description: SANGER: Inhibition of human H9 cell growth in a cell viability assay.

[26] = system: CP66-MEL; assay type: functional, cell-based, Homo sapiens; details: Homo sapiens, CP66-MEL;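 also: growth inhibition of CP66-MEL cells determined in a cell viability assay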
Description: SANGER: Inhibition of human CP66-MEL cell growth in a cell viability assay.

[27] = system: ECC10; assay type: functional, cell-based; details: Homo sapiens;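 also: growth inhibition of ECC10 cells, read out by a cell viability assay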
Description: SANGER: Inhibition of human ECC10 cell growth in a cell viability assay.

[28] = system: CAL-12T; assay type: functional, cell-based, Homo sapiens; details: Homo sapiens, CAL-12T;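 also: growth inhibition of human CAL-12T cells, read out with a cell viability assay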
Description: SANGER: Inhibition of human CAL-12T cell growth in a cell viability assay.

[29] = system: LAMA-84; assay type: functional, cell-based; details: Homo sapiens;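 also: growth inhibition of LAMA-84 cells, read out with a cell viability assay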
Description: SANGER: Inhibition of human LAMA-84 cell growth in a cell viability assay.

[30] = system: NCI-H1993; assay type: functional, cell-based, Homo sapiens; details: Homo sapiens, NCI-H1993;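 also: growth inhibition of the cancer cell line, assessed with a cell viability assay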
Description: SANGER: Inhibition of human NCI-H1993 cell growth in a cell viability assay.

[31] = system: NCI-H1092; assay type: functional, cell-based; details: Homo sapiens;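 also: cell growth inhibition measured with a cell viability assay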
Description: SANGER: Inhibition of human NCI-H1092 cell growth in a cell viability assay.

SMILES | IC50 [1] [nM] | IC50 [2] [nM] | IC50 [3] [nM] | IC50 [4] [nM] | IC50 [6] [nM] | IC50 [7] [nM] | IC50 [8] [nM] | IC50 [9] [nM] | IC50 [10] [nM] | IC50 [11] [nM] | IC50 [12] [nM] | IC50 [13] [nM] | IC50 [14] [nM] | IC50 [15] [nM] | IC50 [16] [nM] | IC50 [17] [nM] | IC50 [18] [nM] | IC50 [19] [nM] | IC50 [20] [nM] | IC50 [21] [nM] | further results
Nc1ccn([C@@H]2O[C@H](CO)[C@@H](O)[C@@H]2O)c(=O)n1 [CYTARABINE] | 1730 | 1740 | 1270 | 78.6 | 145 | > 2000 | 467 | 1780 | 251 | 1390 | > 2000 | 844 | > 2000 | 166 | 269 | 717 | 758 | > 2000 | 1450 | > 2000 | IC50 [5]: 319 nM; IC50 [22]: 1790 nM; IC50 [23]: > 2000 nM; IC50 [24]: > 2000 nM; IC50 [25]: 391 nM; IC50 [26]: > 2000 nM; IC50 [27]: > 2000 nM; IC50 [28]: > 2000 nM; IC50 [29]: 335 nM; IC50 [30]: > 2000 nM; IC50 [31]: > 2000 nM
O=C(c1cc(Cc2n[nH]c(=O)c3ccccc23)ccc1F)N1CCN(C(=O)C2CC2)CC1 [OLAPARIB] | > 5000 | > 5000 | > 5000 | > 5000 | > 5000 | > 5000 | > 5000 | > 5000 | > 5000 | > 5000 | > 5000 | > 5000 | > 5000 | > 5000 | 2450 | > 5000 | > 5000 | > 5000 | > 5000 | > 5000 | IC50 [22]: > 5000 nM; IC50 [23]: > 5000 nM; IC50 [24]: > 5000 nM; IC50 [25]: > 5000 nM; IC50 [27]: > 5000 nM; IC50 [28]: > 5000 nM; IC50 [29]: > 5000 nM; IC50 [30]: > 5000 nM; IC50 [31]: > 5000 nM
O=C(NOCC1CC1)c1ccc(F)c(F)c1Nc1ccc(I)cc1Cl [CI-1040] | > 10000 | > 10000 | 2450 | 2910 | 1300 | > 10000 | 244 | > 10000 | > 10000 | 5370 | 5490 | > 10000 | > 10000 | 810 | 6540 | > 10000 | > 10000 | > 10000 | > 10000 | > 10000 | IC50 [5]: 5170 nM; IC50 [22]: > 10000 nM; IC50 [23]: > 10000 nM; IC50 [25]: 22.8 nM; IC50 [26]: 488 nM; IC50 [27]: 8030 nM; IC50 [28]: 8660 nM; IC50 [29]: 3140 nM; IC50 [30]: > 10000 nM; IC50 [31]: > 10000 nM
CN(C)C/C=C/C(=O)Nc1cc2c(Nc3ccc(F)c(Cl)c3)ncnc2cc1O[C@H]1CCOC1 [AFATINIB] | > 500 | > 500 | > 500 | > 500 | > 500 | > 500 | 17.5 | > 500 | > 500 | > 500 | > 500 | > 500 | > 500 | > 500 | > 500 | > 500 | > 500 | > 500 | > 500 | > 500 | IC50 [5]: 319 nM; IC50 [22]: > 500 nM; IC50 [23]: > 500 nM; IC50 [24]: > 500 nM; IC50 [25]: 71.3 nM; IC50 [26]: > 500 nM; IC50 [27]: > 500 nM; IC50 [28]: > 500 nM; IC50 [29]: > 500 nM; IC50 [30]: > 500 nM; IC50 [31]: > 500 nM
CC(=O)O[C@@]12CO[C@@H]1C[C@H](O)[C@@]1(C)C(=O)[C@H](O)C3=C(C)[C@@H](OC(=O)[C@H](O)[C@@H](NC(=O)OC(C)(C)C)c4ccccc4)C[C@@](O)([C@@H](OC(=O)c4ccccc4)[C@H]21)C3(C)C [DOCETAXEL] | 4.69 | 3.55 | 4 | > 10 | > 10 | > 10 | 0.239 | 6.41 | 0.758 | 6.83 | 4.08 | > 10 | > 10 | 1.82 | 0.182 | 0.302 | 1.27 | 3.46 | 2.33 | > 10 | IC50 [5]: 1.55 nM; IC50 [22]: 0.676 nM; IC50 [23]: 1.48 nM; IC50 [24]: > 10 nM; IC50 [25]: 1.24 nM; IC50 [26]: 3 nM; IC50 [27]: 4.6 nM; IC50 [28]: 3.76 nM; IC50 [29]: > 10 nM; IC50 [30]: > 10 nM; IC50 [31]: > 10 nM

— ChEMBL document CHEMBL1201861, “Genomics of Drug Sensitity in Cancer screening data, Wellcome Trust Sanger Institute”
